Measured values: patent US7410975B2, “Small molecule toll-like receptor (TLR) antagonists” (Coley Pharmaceutical Group, Inc., priority 2003, dated 2008)
Entries after “also recorded” stand apart in the source; their conditions may differ. Like-named read-outs stand apart in the source and are kept apart here.

Tests used:
[1] = read-out: IC50 by Macfarlane's assay; cited from earlier work
[2] = Macfarlane's assay of chloroquines (IC50); details: from the Macfarlane IC50 values
From the text: It turns out that chloroquine, hydroxychloroquine, mono de-ethylchloroquine, and bis de-ethylchloroquine have been examined by Macfarlane.

[3] = test system: Plasmodium falciparum; details: treatment of malaria; Aderounmu 1984; cited from earlier work
[4] = cited from earlier work
[5] = target: T1, hTLR9 (Homo sapiens, UniProt Q9NR96); experiment: hTLR9 antagonism IC50, hTLR9-NFkB-293 cells, luciferase readout, CpG-ODN 2006 (Examples 8 and 18, Tables 19 and 20); type: cell-based; details: hTLR9-NFkB-293 cells, EC50 dose of CpG-ODN 2006, 16 h; Table 19 quinazolines; read-out: hTLR9 (IC50 dose for blockade of a CpG ODN-generated signal)
T1 construct: expressed in transfected cells
T1 sequence (Q9NR96 26-1032): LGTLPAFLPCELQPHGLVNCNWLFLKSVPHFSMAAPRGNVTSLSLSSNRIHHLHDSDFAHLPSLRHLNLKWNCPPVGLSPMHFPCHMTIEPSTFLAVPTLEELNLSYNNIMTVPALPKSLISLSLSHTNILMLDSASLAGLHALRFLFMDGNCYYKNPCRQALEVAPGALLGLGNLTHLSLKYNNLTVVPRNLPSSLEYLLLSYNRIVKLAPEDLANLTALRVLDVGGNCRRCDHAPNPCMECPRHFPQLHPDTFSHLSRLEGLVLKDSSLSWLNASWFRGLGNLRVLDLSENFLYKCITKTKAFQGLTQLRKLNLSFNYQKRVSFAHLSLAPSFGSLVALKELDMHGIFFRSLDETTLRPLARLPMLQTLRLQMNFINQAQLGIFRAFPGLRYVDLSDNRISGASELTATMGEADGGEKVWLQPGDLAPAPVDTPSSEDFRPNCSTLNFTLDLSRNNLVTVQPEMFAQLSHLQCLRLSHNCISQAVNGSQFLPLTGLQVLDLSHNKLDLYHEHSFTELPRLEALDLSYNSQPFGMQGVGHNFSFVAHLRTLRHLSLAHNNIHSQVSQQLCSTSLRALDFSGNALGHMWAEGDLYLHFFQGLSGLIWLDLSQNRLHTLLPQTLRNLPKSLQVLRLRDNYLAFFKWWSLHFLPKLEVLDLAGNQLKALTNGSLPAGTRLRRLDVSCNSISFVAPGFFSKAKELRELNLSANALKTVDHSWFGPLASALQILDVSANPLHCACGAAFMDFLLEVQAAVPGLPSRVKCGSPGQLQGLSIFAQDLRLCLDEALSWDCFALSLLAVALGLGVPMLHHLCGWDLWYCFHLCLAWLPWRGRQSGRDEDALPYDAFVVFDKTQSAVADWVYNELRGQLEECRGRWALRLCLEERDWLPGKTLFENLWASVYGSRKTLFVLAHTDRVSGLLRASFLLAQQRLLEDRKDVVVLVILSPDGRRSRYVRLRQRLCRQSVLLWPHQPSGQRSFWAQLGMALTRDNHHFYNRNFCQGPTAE
Method: (§1) hTLR9-NFkB-293 cells were counted and seeded at 1.5×10^4 cells per well in 96-well cell culture plates one day before assaying and cultured at 37° C./5% CO2, as described in Example 7. The day of the assay, antagonist was added at varying concentrations starting at 50 μM with a 1/5 to 1/6 dilution for 7 steps. The cells were then stimulated with the EC50 dose of the TLR9 agonist, CpG-ODN 2006, and cultured for 16 h in a humidified incubator at 37° C. The culture supernatant was removed and the cells were treated with lysis buffer and stored at −80° C. before measuring luciferase activity as described in Example 7. […] Results shown in Table 19 under the heading hTLR9 are the IC50 dose (μM) for blockade of a CpG ODN-generated signal in hTLR9-NFkB-293 cells.
as §1, with “20” for “19”

[6] = test system: CpG ODN-generated IL-6 production by human PBMC; experiment: Blockade of CpG ODN-generated IL-6 production by human PBMC, ELISA (Example 8, Table 19); type: cell-based; details: CpG-ODN 2006, 16 h
From the text: Alternatively, TLR9 ligand antagonism in human peripheral blood mononuclear cells (PBMC) was monitored. Peripheral blood buffy coat preparations from healthy male and female human donors were obtained from the Blood Bank of the University of Düsseldorf (Germany) and from these, PBMC were purified by centrifugation over Ficoll-Hypaque (Sigma). The purified PBMC were resuspended in RPMI 1640 culture medium supplemented with 5% (v/v) heat-inactivated human AB serum (Bio Whittaker, Belgium) or 10% (v/v) heat-inactivated fetal calf serum (FCS), 1.5 mM L-glutamine, 100 U/ml penicillin and 100 μg/ml streptomycin (all from Sigma). Fresh PBMC at a concentration of 3×10^6/ml to 5×10^6/ml were added to 96-well round-bottomed plates (150 μl/well). After cell plating, antagonist was added at varying concentrations starting at 50 μM with a 1/5 to 1/6 dilution for 7 steps. The cells were then stimulated with the TLR9 agonist, CpG-ODN 2006, and cultured for 16 h in a humidified incubator at 37° C. Culture supernatants were collected and, if not used immediately, frozen at −20° C. until required. Interleukin 6 (IL-6) in the supernatants was quantitatively assessed using commercially available ELISA Kits (IL6, Diaclone, USA). Sigmoidal antagonism curves were generated and IC50 calculated. Results shown in Table 19 under the heading IL-6 are the IC50 dose (μM) for blockade of CpG ODN-generated IL-6 production by human PBMC.

[7] = test system: WEHI 231 B-cells; details: anti-surface IgM, U.S. Pat. No. 6,479,504, read-out: EC50, half-maximal inhibition of CpG-ODN effect on thymidine uptake; cited from earlier work
[8] = In vivo toxicity in mice: body weight, mortality, white blood cell differential (Example 9); set-up: species or system BALB/c mice
From the text: FIG. 2 is a pair of graphs depicting results of an in vivo toxicity assay in mice for specific quinoline and quinazoline compounds. […] N=3 for each treatment group.
FIG. 3 is a bar graph depicting total and differential white blood cell counts in mice measured five days after administration of a single intraperitoneal dose of specific quinoline and quinazoline compounds. N=3 for each treatment group.
Female BALB/c mice (n=3 per group) were given a single intraperitoneal bolus injection of CMZ 203-43 (1.0 or 4.0 mg), CMZ 203-34 (1.0 or 4.0 mg) or CMZ 203-49 (1.0 or 4.0 mg) in a volume of 0.2 ml. Compound CMZ 203-43 has the structural formula
Other mice received 10% dimethyl sulfoxide (DMSO) in an identical manner. Animals were weighed immediately prior to injection (day 1) and then daily until day 5. On day 5, blood was collected by cardiac puncture and analyzed for hematological and biochemical parameters. Animals were monitored daily for morbidity and mortality.
All of the mice receiving 4.0 mg CMZ 203-43 group were dead on day 4.
Data for mice treated with 4.0 mg CMZ 203-43 was not available because all these mice were dead before day 5.

[9] = test system: TNF-α induction by CpG ODN 2006; experiment: In vivo inhibition of TNF-α induction by CpG ODN 2006 (Example 11); set-up: species or system BALB/c mice; details: 40 μg intraperitoneal 1 h before 100 μg CpG ODN 2006 s.c.; bled at 1 hr
Method: FIG. 5 is a bar graph depicting in vivo inhibition of TNF-α induction (pg/ml) by CpG ODN 2006 following pretreatment with PBS control or a quinoline compound (203-43) or various indicated quinazoline compounds (203-34, 203-49, or 203-51). N=5 for each group.
(§2) BALB/c mice (n=5) were pretreated with intraperitoneal injection of 40 μg quinoline 203-43, quinazoline 203-34, 203-49, or 203-51, or with 100 μl of sterile phosphate buffered saline (PBS) control. One hour after the injection, mice were injected subcutaneously with 100 μg CpG ODN 2006. Animals were bled at 3 hr post injection with CpG ODN 2006 and IP-10 levels in plasma measured by IP-10-specific enzyme-linked immunosorbent assay (ELISA).
Groups of BALB/c mice treated as in Example 10 were also analyzed for TNF-α. Animals were bled at 1 hr post injection with CpG ODN 2006 and TNF-α levels in plasma measured by TNF-α-specific ELISA.

[10] = test system: IP-10 induction by CpG ODN 2006; experiment: In vivo inhibition of IP-10 induction by CpG ODN 2006 (Example 10); set-up: species or system BALB/c mice; details: 40 μg intraperitoneal 1 h before 100 μg CpG ODN 2006 s.c.; bled at 3 hr
Method: FIG. 4 is a bar graph depicting in vivo inhibition of IP-10 induction (pg/ml) by CpG ODN 2006 following pretreatment with PBS control or a quinoline compound (203-43) or various indicated quinazoline compounds (203-34, 203-49, or 203-51). N=5 for each group.
as §2

[11] = 4.0 mg single intraperitoneal injection

| SMILES | IC50 [1] | IC50 [5] | IC50 [6] | also measured |
| --- | --- | --- | --- | --- |
| CC(CCCN)Nc1ccnc2cc(Cl)ccc12 (stereo not shown) [bis de-ethylchloroquine] | 1860 nM | – | – | reduction of potency relative to chloroquine [2]: about 18 fold; potency against Plasmodium falciparum [3]: about half as active |
| CCN(CC)CCCC(C)Nc1ccnc2cc(Cl)ccc12 (stereo not shown) [chloroquine] | 110 nM | – | – | half life in humans ([4]; human, in vivo): 18 days; potency against Plasmodium falciparum [3]: about equal |
| CN(C)CCNC1NC(c2ccc(N3CCN(C)CC3)cc2)=Nc2ccccc21 (stereo not shown) [CMZ 203-34(201), N,N-dimethyl-N′-{2-[4-(4-methyl-piperazin-1-yl)-phenyl]-3,4-dihydro-quinazoline-4-yl}-ethane-1,2,-diamine] | – | 3 nM | 50 nM | – |
| CCNCCCC(C)Nc1ccnc2cc(Cl)ccc12 (stereo not shown) [mono de-ethylchloroquine] | 708 nM | – | – | half life relative to that of chloroquine ([4]; humans): 1.5 times; half life in humans ([4]; humans, de Vries 1994): 27 days; reduction of potency relative to chloroquine [2]: about 7 fold; potency against Plasmodium falciparum [3]: about equal |
| CN(C)CCNc1nc(-c2ccc(-c3ccccc3)cc2)nc2ccccc12 [CMZ 203-51, N′-(2-Biphenyl-4-yl-quinazolin-4-yl)-N,N-dimethyl-ethane-1,2-diamine] | – | 5200 nM | 6600 nM | – |
| CN(C)CCOc1nc(-c2ccc(N3CCN(C)CC3)cc2)nc2ccccc12 [CMZ 203-49(213), Dimethyl-(2-{2-[4-(4-methyl-piperazin-1-yl)-phenyl]-quinazolin-4-yloxy}-ethyl)-amine] | – | 2400 nM | 600 nM | – |
| CN(C)CCNc1nc(-c2ccccc2)nc2ccccc12 [CMZ 203-44, N,N-Dimethyl-N′-(2-phenyl-quinazolin-4-yl)-ethane-1,2-diamine] | – | 2400 nM | 4000 nM | – |
| COc1cc2nc(N3CCN(C)CC3)nc(NCCN(C)C)c2cc1OC [CMZ 203-76, N′-[6,7-Dimethoxy-2-(4-methyl-piperazin-1-yl)-quinazolin-4-yl]-N,N-dimethyl-ethane-1,2-diamine] | – | 3 nM | 221 nM | – |
| CCN(CC)CCCC(C)Nc1c2ccc(Cl)cc2nc2ccc(OC)cc12 (stereo not shown) [quinacrine] | – | – | – | EC50 [7]: ~8 nM |
| CN(C)CCNc1cc(-c2ccc(N3CCN(C)CC3)cc2)nc2ccccc12 [CMZ 203-43] | – | – | – | body weight change ([8]; 1.0 mg single intraperitoneal injection, 5 days): significant weight loss; white blood cell differential ([8]; 1.0 mg single intraperitoneal injection, day 5): significant neutrophilia; morbidity and mortality [8, 11]: sick and had to be sacrificed on day 3; also recorded: dead on day 4; necropsy finding [8, 11]: bowel obstruction; serum TNF-α concentration versus PBS control [9]: significantly reduced; serum IP-10 concentration versus PBS control [10]: significantly reduced |
| COc1cc2nc(N3CCN(c4ccccc4)CC3)nc(NCCN(C)C)c2cc1OC [CMZ 203-78, N′-[6,7-Dimethoxy-2-(4-phenyl-piperazin-1-yl)-quinazolin-4-yl]-N,N-dimethyl-ethane-1,2-diamine] | – | 3 nM | 8 nM | – |
| CCN(CCO)CCCC(C)Nc1ccnc2cc(Cl)ccc12 (stereo not shown) [hydroxychloroquine] | 410 nM | – | – | – |
